Test [1] has as its system TFEB. Nature of the test: TFEB nuclear translocation assay. It is filed as cell-based. The note with it: Homo sapiens; HeLa wt or HeLa TRPML1 KO cells, treated for 2 hrs; ratio of nuclear to ring-region TFEB intensity. A digest of the protocol: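 HeLa wild-type or TRPML1 KO cells treated 2 h with compound at 37 °C, PFA-fixed, immunostained for TFEB (Alexa 488) with Hoechst nuclei. Imaged at ×20, four fields/well. Value is ratio of nuclear to perinuclear-ring TFEB intensity, with nuclei counts.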

The subject of test [2] is THP-1 cells. Nature of the test: Lamp1 lysosomal exocytosis assay. The class given is cell-based. The note with it: Homo sapiens, 55 min, 55 min incubation, top dose 20 μM. The gist of the method:
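THP-1 cells (1e5/well) exposed to a 7-point 3-fold compound series, top final 20 μM, for 55 min at 37°C. Surface Lamp1 then stained with Lamp1-PE on ice in buffer containing 80 μM Dynasore, and read by flow cytometry as PE geometric mean on live, sytox-negative singlets.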

As usually defined, the EC50 is the concentration at which the effect is half-maximal. Turning to `COc1ccc(NC(=O)N2CCC3(CC2)CN(S(=O)(=O)c2ccc(C(F)F)cc2)c2ccccc23)c(OC)c1` [Compound I-227, 1-((4-(difluoromethyl)phenyl)sulfonyl)-N-(2,4-dimethoxyphenyl)spiro[indoline-3,4′-piperidine]-1′-carboxamide], the 50% effective concentration (EC50) in test [1] was 2.01 to 8 µM; in test [2] it was not below 5.01 µM.
Consider `COc1cccc(NC(=O)N2CCC3(CC2)CN(S(=O)(=O)c2ccc(C(F)F)cc2)c2ccccc23)c1OC` [Compound I-228, 1-((4-(difluoromethyl)phenyl)sulfonyl)-N-(2,3-dimethoxyphenyl)spiro[indoline-3,4′-piperidine]-1′-carboxamide], for which the 50% effective concentration (EC50) in test [1] is not above 2 µM; in test [2] it was not below 5.01 µM.
As for `O=C(Nc1ccccc1)C1CCC2(CC1)CN(S(=O)(=O)c1ccc(C(F)F)cc1)c1ccccc12` (centres unmarked) [Compound I-230, 1′-((4-(difluoromethyl)phenyl)sulfonyl)-N-phenylspiro[cyclohexane-1,3′-indoline]-4-carboxamide], the half-maximal effective concentration (EC50) in test [1] was not above 2 µM; in test [2], not below 5.01 µM.
Take `CN(C(=O)C1CCC2(CC1)CN(S(=O)(=O)c1ccc(C(F)F)cc1)c1ccccc12)c1ccccc1` (centres unmarked) [Compound I-234, 1′-((4-(difluoromethyl)phenyl)sulfonyl)-N-methyl-N-phenylspiro[cyclohexane-1,3′-indoline]-4-carboxamide]: the EC50 is not above 2 µM in test [1] and not below 5.01 µM in test [2].
As to `CN(Cc1ccccc1)C(=O)C1CCC2(CC1)CN(S(=O)(=O)c1ccc(C(F)F)cc1)c1ccccc12` (centres unmarked) [Compound I-235, N-benzyl-1′-((4-(difluoromethyl)phenyl)sulfonyl)-N-methylspiro[cyclohexane-1,3′-indoline]-4-carboxamide], the EC50 was not above 2 µM in test [1] and not below 5.01 µM in test [2].
For the compound `O=C(OCc1ccccc1)N1CCC2(CC1)CN(C(=O)Cc1ccc(C(F)F)cc1)c1ccccc12` [Compound I-246, benzyl 1-(2-(4-(difluoromethyl)phenyl)acetyl)spiro[indoline-3,4′-piperidine]-1′-carboxylate], the 50% effective concentration (EC50) in test [1] was not below 10 µM; in test [2] it was not below 5.01 µM.
With `O=C(OCc1ccccc1)N1CCC2(CC1)CN(C(=O)Nc1ccc(C(F)F)cc1)c1ccccc12` [Compound I-247, benzyl 1-((4-(difluoromethyl)phenyl)carbamoyl)spiro[indoline-3,4′-piperidine]-1′-carboxylate], the EC50 in test [1] is not below 10 µM; in test [2] it was not below 5.01 µM.
`CN(C(=O)N1CC2(CCN(C(=O)OCc3ccccc3)CC2)c2ccccc21)c1ccc(C(F)F)cc1` [Compound I-248, benzyl 1-((4-(difluoromethyl)phenyl)(methyl)carbamoyl)spiro[indoline-3,4′-piperidine]-1′-carboxylate]: the values for the 50% effective concentration (EC50) in test [1] and in test [2] were not below 10 µM and not below 5.01 µM, respectively.
`O=C(OCc1ccccc1)N1CCC2(CC1)CN(C(=O)Oc1ccc(C(F)F)cc1)c1ccccc12` [Compound I-249, 1′-benzyl 1-(4-(difluoromethyl)phenyl) spiro[indoline-3,4′-piperidine]-1,1′-dicarboxylate]: the EC50 in test [1] was not below 10 µM; in test [2] it was not below 5.01 µM.
For the compound `O=C(OCc1ccccc1)N1CCC2(CC1)CN(S(=O)(=O)Cc1ccc(C(F)F)cc1)c1ccccc12` [Compound I-250, benzyl 1-((4-(difluoromethyl)benzyl)sulfonyl)spiro[indoline-3,4′-piperidine]-1′-carboxylate], the 50% effective concentration (EC50) is not above 2 µM in test [1] and not above 0.5 µM in test [2].

Source of the values: patent US20230416262A1, “TRPML MODULATORS” (Casma Therapeutics, Inc., priority 2020, published 2023).
